Assay results as given in patent EP0508792A1, “Anti-tumor and anti-psoriatic agents” (SCHERING CORPORATION, priority 1991, dated 1992).

Test system: Normal Human Keratinocytes (NHEK)
Assay: 3H thymidine uptake in normal human keratinocytes (NHEK)
Assay type: cell-based
Settings: Homo sapiens, 20 h; dose response study, 3H thymidine uptake in NHEK; read-out: IC₅₀
Experimental: ^3H Thymidine Uptake in Normal Human Keratinocytes (NHEK): Effects of Compounds of the Invention
Second passage NHEK cells grown in MCDB 153 media with a 5% CO2 air mixture at 37° were used for experiments. Compounds of the invention which were tested were prepared at 5mM stock solutions in DMSO. Cells were grown to 60-80% confluency in 6 well trays. Compounds were added to give a concentration of 5x10⁻⁶ molar and cultures were simultaneously pulsed with 1 microCurie/mL ^3H thymidine for 20 hours. Cells were then harvested and tritium was counted using a liquid scintillation counter; results are the average of 8 wells per compound. In the control, when no compound is employed, there is 0% inhibition of thymidine uptake.
A dose response study of the compound from Example 35, using the just above described test was conducted. Concentrations of the compound from Example 35 ranging from 5x10⁻⁵ to 5x10⁻⁶ M in tenfold dilutions were conducted.

| SMILES | IC50 [nM] |
| --- | --- |
| O=C1NC(=O)c2c1c1c3ccccc3n3c1c1c2c2ccccc2n1[C@@H]1O[C@H]3C[C@@H]1CO (relative stereo) [Example 35] | 1720 |

Same assay, conditions: compound at 5x10⁻⁶ molar; 3H thymidine pulse 20 hours; average of 8 wells

| SMILES | % Inhibition of Control [%] |
| --- | --- |
| O=C1NCc2c1c1c3ccccc3n3c1c1c2c2ccccc2n1C1CCC3O1 (racemic) [Example 23] | 78.8 |
| O=C1NC(=O)c2c1c1c3ccccc3n3c1c1c2c2ccccc2n1[C@@H]1O[C@H]3C[C@@H]1CO (relative stereo) [Example 35] | 99.2 |
| O=C1NC(=O)c2c1c1c3ccccc3n3c1c1c2c2ccccc2n1[C@H]1CC[C@@H]3O1 [Example 22] | 77.3 |

Molecular target: PKC
Assay: Mixed micellar protein kinase C (PKC) assay, in vitro inhibition of PKC
Assay type: biochemical
Settings: partially purified rat brain PKC; histone III-S substrate; 23°C, 15 minutes; 2% DMSO
Experimental: The below listed Test Methods A and B were run in accordance with the procedures described in Bishop, W.R., Petrin, J., Wang, L., Ramesh, U., and Doll, R.J. (1990) Biochemical Pharmacology 40: No. 9, pp. 2129-2135 and Hannun et al, J. Biol. Chem. 260, 10039-10043, (1985), which are herein incorporated by reference.The following modifications were made in this procedure:
A. Protein Kinase C ("PKC") Protocol
Mixed micellular protein kinase C assays were conducted by the methods described in the two articles cited just above, (namely, Bishop et al, and Hannun et al), in a reaction mixture (0.25 mL total volume) containing: 20 mM Tris-HCl (pH 7.5); […] histone III-S; 10 mM MgCl2; 5 mM [g-32P]ATP (4 x 10^6 cpm/nmol); […] CaCl2; 32 mg/mL of phosphatidylserine; […] of 1-oleoyl-2-acetyl-glycerol and various concentrations of compounds of this invention added from a dimethyl-sulfoxide (DMSO) stock solution. The final concentration of DMSO in the reaction was 2% w/v. Reactions were started by addition of approximately […] of partially purified rat brain PKC and allowed to proceed at 23°C for 15 minutes. Reactions were terminated by collection of trichloroacetic acid-precipitated phosphorylated histone on GF/C filters using a Brandel Cell Harvester (Model No. M-24-R).

| SMILES | IC50 [nM] |
| --- | --- |
| Cc1ccc2c(c1)c1c3c(c4c5cc(C)ccc5n5c4c1n2[C@@H]1CC[C@H]5O1)C(=N)NC3=O (relative stereo) [Example 29] | 42 |
| O=C1NC(=O)c2c1c1c3ccccc3n3c1c1c2c2ccccc2n1[C@@H]1O[C@H]3C[C@@H]1CO (relative stereo) [Example 35] | 7.5 |
| O=C1NC(=O)c2c1c1c3ccccc3n3c1c1c2c2ccccc2n1[C@@H]1O[C@H]3C[C@H]1CO (relative stereo) [Example 36] | 10 |
| NC(=O)[C@H]1C[C@@H]2O[C@H]1n1c3ccccc3c3c4c(c5c6ccccc6n2c5c31)C(=O)NC4=O (relative stereo) [Example 37] | 115 |
| CO[C@H]1C[C@@H]2O[C@H]1n1c3ccccc3c3c4c(c5c6ccccc6n2c5c31)C(=O)NC4=O (relative stereo) [Example 38] | 1.4 |
| CS(=O)(=O)OC[C@H]1C[C@@H]2O[C@H]1n1c3ccccc3c3c4c(c5c6ccccc6n2c5c31)C(=O)NC4=O (relative stereo) [Example 39] | 5 |
| CS(=O)(=O)OC[C@@H]1C[C@@H]2O[C@H]1n1c3ccccc3c3c4c(c5c6ccccc6n2c5c31)C(=O)NC4=O (relative stereo) [Example 40] | 15 |
| [N-]=[N+]=NC[C@H]1C[C@@H]2O[C@H]1n1c3ccccc3c3c4c(c5c6ccccc6n2c5c31)C(=O)NC4=O (relative stereo) [Example 41] | 7.5 |
| NC[C@@H]1C[C@@H]2O[C@H]1n1c3ccccc3c3c4c(c5c6ccccc6n2c5c31)C(=O)NC4=O (relative stereo) [Example 45] | 13 |
| O=C(NC[C@@H]1C[C@@H]2O[C@H]1n1c3ccccc3c3c4c(c5c6ccccc6n2c5c31)C(=O)NC4=O)c1ccccc1 (relative stereo) [Example 46] | 230 |
| O=C1NC(=O)c2c1c1c3ccccc3n3c1c1c2c2ccccc2n1[C@@H]1O[C@H]3C[C@H]1Cn1ccnc1 (relative stereo) [Example 48] | 7 |
| CN(C)C[C@@H]1C[C@@H]2O[C@H]1n1c3ccccc3c3c4c(c5c6ccccc6n2c5c31)C(=O)NC4=O (relative stereo) [Example 49] | 4 |
| Cc1ccc2c(c1)c1c3c(c4c5cc(C)ccc5n5c4c1n2[C@@H]1C[C@@H](CO)[C@H]5O1)C(=O)NC3=O (relative stereo) [Example 57] | 23 |
| Cc1ccc2c(c1)c1c3c(c4c5cc(C)ccc5n5c4c1n2[C@@H]1C[C@H](CO)[C@H]5O1)C(=O)NC3=O (relative stereo) [Example 58] | 23 |
| O=C1NC(=O)c2c1c1c3ccccc3n3c1c1c2c2ccccc2n1[C@@H]1O[C@H]3C[C@H]1C(=O)O (relative stereo) [Example 63] | 20 |
| CC(C)(C)OC(=O)CNC(=O)[C@@H]1C[C@@H]2O[C@H]1n1c3ccccc3c3c4c(c5c6ccccc6n2c5c31)C(=O)NC4=O (relative stereo) [Example 64] | 19 |
| CNC(=O)[C@@H]1C[C@@H]2O[C@H]1n1c3ccccc3c3c4c(c5c6ccccc6n2c5c31)C(=O)NC4=O (relative stereo) [Example 65] | 0.5 |
| O=C1NC(=O)c2c1c1c3ccccc3n3c1c1c2c2ccccc2n1[C@@H]1O[C@H]3C[C@H]1C(=O)NCc1ccccc1 (relative stereo) [Example 66] | 20 |
| NC(=O)[C@@H]1C[C@@H]2O[C@H]1n1c3ccccc3c3c4c(c5c6ccccc6n2c5c31)C(=O)NC4=O (relative stereo) [Example 67] | 0.6 |
| CN(C)C(=O)[C@@H]1C[C@@H]2O[C@H]1n1c3ccccc3c3c4c(c5c6ccccc6n2c5c31)C(=O)NC4=O (relative stereo) [Example 68] | 1 |
| O=C(O)CNC(=O)[C@@H]1C[C@@H]2O[C@H]1n1c3ccccc3c3c4c(c5c6ccccc6n2c5c31)C(=O)NC4=O (relative stereo) [Example 69] | 0.8 |
| S=C1NC(=S)c2c1c1c3ccccc3n3c1c1c2c2ccccc2n1[C@H]1CC[C@@H]3O1 [Example 25] | 13 |
| O=C1NC(O)c2c1c1c3ccccc3n3c1c1c2c2ccccc2n1[C@H]1CC[C@@H]3O1 (stereo partly drawn) [Example 26] | 19 |
| Cc1ccc2c(c1)c1c(Br)c(Br)c3c4cc(C)ccc4n4c3c1n2[C@@H]1CC[C@H]4O1 [Example 27] | 18 |
| Cc1ccc2c(c1)c1c(C#N)c(C#N)c3c4cc(C)ccc4n4c3c1n2[C@@H]1CC[C@H]4O1 [Example 28] | 58 |
| Cc1ccc2c(c1)c1c3c(c4c5cc(C)ccc5n5c4c1n2[C@@H]1CC[C@H]5O1)C(=O)NC3=O [Example 30] | 50 |
